Laboratory results as given in patent US20090325920A1, “METHODS FOR THE TREATMENT OF A TRAUMATIC CENTRAL NERVOUS SYSTEM INJURY” (priority 2005, published 2009).

Experiments:
[1] = Solubility of progesterone in carriers; type: physicochemical
[2] = tested on: patients having moderate to severe TBI; test: Pilot phase II randomized double-blind trial of progesterone for traumatic brain injury, preliminary evaluation (Example 2); type: in vivo, human
Experimental: The administration protocol was carried out was described above in Example 1.
To determine if a therapeutic response was achieved, the following endpoints were monitored:
ICP reduction determined by calculating “therapeutic intensity level” (ICP-TIL);
duration of coma (injury to awaking);
mortality one-month post injury;
neurological outcome 1 month and 1 year post-injury, as determined by Glasgow outcome scale (GOS), Disability rating scale (DRS) and Galveston orientation and amnesia test (GOAT).
The administration protocol and pharmaceutical composition administered are described in detail in Example 1. Follow up regarding condition occurred at 30 days and 1 year.

[3] = tested on: adults with blunt TBI, Glasgow Coma Scale score 4-12; test: Phase II randomized placebo-controlled trial in acute TBI: signals of activity, 30-day outcomes (Example 3); type: in vivo, human; conditions: for All cause mortality (ITT): intention to treat, n=77
From the text: In addition to monitoring subjects for signs of harm, we hoped to detect signals of activity. […] For this preliminary study, our primary outcome of interest was Glasgow Outcome Scale Extended (GOSE) 30 days post-injury. […] Thirty days following each injury event, we assessed each patient's Glasgow Outcome Score Extended (GOSE) and Disability Rating Scale (DRS). Patients who were severely impaired were classified as “not testable”-a surrogate marker for a poor outcome. Reliability codes were used to record reasons for non-administration of a particular measure, such as physical impairment (e.g., hemiparesis) cognitive impairment (e.g., could not understand instructions), or intoxication. One-year outcomes will be reported at a later date. […] Our secondary aim was to look for signs of drug activity by assessing several measures of outcome. Our a priori primary measure of outcome was the Glasgow Outcome Scale-Extended ([…] et al. (1998) Journal of Neurotrauma 15(8):587-597). […] (1987) Journal of Neurosurgery 67(6):832-840) and 5) the Disability Rating Scale (DRS) (Hall et al. […] Variables determined to be independently associated with all-cause mortality or CNS related-death, such as iGCS (dichotomized into moderate versus severe), injury severity score and Marshall CT score were incorporated in a stepwise logistic regression analyses. Because GCS often fluctuates during the first few hours after injury, additional stepwise logistic regressions were performed using dichotomized GCS 1 day post-injury.

[4] = number of subjects, treatment A (76 of 99)
[5] = 30 days post injury, treatment received
[6] = Index GCS = 9-12, 30 days post injury

SMILES: CC(=O)[C@H]1CC[C@H]2[C@@H]3CCC4=CC(=O)CC[C@]4(C)[C@H]3CC[C@]12C [progesterone, pregn-4-ene-3,20-dione]
- solubility [1]: soluble only in alcohol
- amount dissolved into solution ([1]; Intralipid 20%): up to 4 gm per 1 liter of intralipid
- mortality rate ([2]; moderate to severe TBI, three days IV progesterone, preliminary): 12.9%
- Brain death, frequency [2, 4]: 4
- Medicinal death, frequency [2, 4]: 5
- Not Dead, frequency [2, 4]: 67
- proportion of subjects experiencing brain death versus group B ([2]; p=0.0295 by Fisher's exact test): significantly lower proportion
- proportion of subjects experiencing medical death versus group B ([2]; p=0.6622 by Fisher's exact): not statistically significant
- Medicinal death, percent ([2]; percent of all 99 subjects): 5.05%
- Not Dead, percent ([2]; percent of all 99 subjects): 67.68%
- reduction in brain deaths ([2]; versus control subjects, preliminary): 60%
- Dichotomized Glasgow Outcome Score - Extended: Dead to Upper Severe ([3]; 30 days post injury): 70.0%
- Dichotomized Glasgow Outcome Score - Extended: good or moderate recovery ([3]; 30 days post injury): 30.0%
- Glasgow Outcome Score - Extended: Dead ([3]; 30 days post injury): 14.2%
- Glasgow Outcome Score - Extended: Lower Good ([3]; 30 days post injury): 4.3%
- Glasgow Outcome Score - Extended: Lower Moderate ([3]; 30 days post injury): 11.4%
- Glasgow Outcome Score - Extended: Lower Severe ([3]; 30 days post injury): 40.0%
- Glasgow Outcome Score - Extended: Upper Good ([3]; 30 days post injury): 4.3%
- Glasgow Outcome Score - Extended: Upper Moderate ([3]; 30 days post injury): 10.0%
- Glasgow Outcome Score - Extended: Upper Severe ([3]; 30 days post injury): 8.6%
- Glasgow Outcome Score - Extended: Vegetative State ([3]; 30 days post injury): 7.1%
- All cause mortality (ITT) ([3]; 30 days post injury): 13%
- All cause mortality (ITT) ([3]; 30 days post injury, listed as Progesterone): 13.0%
- All cause mortality (TR) [3, 5]: 11.8%
- Neurological deaths [3, 5]: 5.3%
- Non-neurological deaths [3, 5]: 6.6%
- dichotomized GOSE versus placebo ([3]; 30 days post-injury): did not significantly differ between groups
- Disability Rating Score: Total DRS, mean ([3]; Index GCS = 4-8, 30 days post injury): 10.7
- Disability Rating Score: Employ, mean [3, 6]: 1.8
- Disability Rating Score: Function, mean [3, 6]: 1.5
- Disability Rating Score: Total DRS, mean [3, 6]: 5
- Duration of Coma, mean ([3]; Initial GCS = 4-8): 10.1 days
- Duration of Post-Traumatic Amnesia, mean ([3]; Initial GCS = 4-8): 18.6 days
- Duration of Coma, mean ([3]; Initial GCS = 4-8, listed as Progesterone): 10.11 days
- Duration of Coma, mean ([3]; Initial GCS = 9-12): 4.1 days
- Duration of Post-Traumatic Amnesia, mean ([3]; Initial GCS = 9-12): 10.7 days
- trend of mean intracranial pressure levels ([3]; first 4 days post-injury, subjects with monitors in place, not statistically significant): remained stable
- Intracranial Pressure, mean ([3]; infusion day 0): 16.0 mm Hg
- Intracranial Pressure, mean ([3]; infusion day 1): 17.1 mm Hg
- Intracranial Pressure, mean ([3]; infusion day 2): 15.4 mm Hg
- Intracranial Pressure, mean ([3]; infusion day 3): 16.0 mm Hg
- Intracranial Pressure, mean ([3]; infusion day 4): 17.7 mm Hg
- DRS scores versus placebo ([3]; moderately brain-injured patients, 30 days post-injury): significantly better DRS scores
- Survived > 30 days ([3]; treatment received): 88.2%
